# Test results from patent publication US4550186A, “Binuclear copper (II) carboxylates formed from amine-carboxyboranes” (Duke University, priority 1983, dated 1985).
# Key:
# [1] = Organ weights; format: in vivo, rat; conditions: for Organ Weight: 14 days 10 mg/Kg/Day, Treated
# From the text: Periodic animal weights were obtained during the experiments and expressed as a percentage of the animal's weight on day 0. After dosing for 14 days with test drugs, selected organs were excised, trimmed of fat and weighed. The organ weights were expressed as a percentage of the total body weight of the animal.
# [2] = tested on: Acetyl CoA synthetase; assay: In vivo liver enzyme study: acetyl CoA synthetase; set-up: species or system mouse; conditions: CF1 liver after 16 days i.p.
# Method: (§1) In vitro enzymatic studies were determined using 10% homogenates of CF1 male mouse liver with 50-200 μM of test drugs. In vivo enzymatic studies were determined using 10% homogenates of liver from CF1 male mice obtained after administering the agents for 16 days at a dose ranging from 2.5-20 mg/kg/day intraperitoneally. The liver homogenates for both in vitro and in vivo studies were prepared in 0.25M sucrose and 0.001M (ethylenedinitrilo)tetraacetic acid. Acetyl coenzyme A synthetase and adenosine triphosphate dependent citrate lyase activities were determined spectrophotometrically at 540 nm as the hydroxylamate of acetyl coenzyme A formed after 30 min at 37° C. Mitochondrial citrate exchange was determined by the procedure of Robinson et al [Eur. J. Biochem., 216, 63 (1970)] using ^14 C-sodium bicarbonate (41 mCi/mmol) incorporated into mitochondrial ^14 C-citrate after isolating rat mitochondria (9000 g×10 min) from the homogenates. The exchanges of the ^14 C-citrate were determined after incubating the mitochondrial fraction which was loaded with labeled citrate and test drugs for 10 min. Then the radioactivity was measured in the mitochondrial and supernantant fractions in scintillation fluid and expressed as a percentage. Cholesterol side chain oxidation was determined by the method of Kritchevsky and Tepper [Artherosclerosis, 18, 93 (1973)] using (26-^14 C) cholesterol (50 mCi/mmol) and mitochondria isolated from rat liver homogenates. […] Fatty acid synthetase activity was determined by the method of Brady et al [J. Biol. Chem., 235, 3093 (1960)] using [2-^14 C] malonyl-coenzyme A (37.5 mCi/mmol) which was incorporated into newly synthesized fatty acids that were extracted with ether and counted. Acyl transferase activity was determined with glycerol-3phosphate [L-2-^3 H(N)] […] HCl and counted. Phosphatidate phosphohydrolase activity was measured as the inorganic phosphate released after 30 min from phosphatidic acid by the method of Mavis et al [J. Lipid Res., 19, 467 (1978)]. […]
# [3] = tested on: Phosphatidate Phosphohydrolase; assay: In vivo liver enzyme study: phosphatidate phosphohydrolase; set-up: species or system mouse; conditions: for Phosphatidate Phosphohydrolase: CF1 liver after 16 days i.p.
# Method: In vitro enzymatic studies were determined using 10% homogenates of CF1 male mouse liver with 50-200 μM of test drugs. In vivo enzymatic studies were determined using 10% homogenates of liver from CF1 male mice obtained after administering the agents for 16 days at a dose ranging from 2.5-20 mg/kg/day intraperitoneally. The liver homogenates for both in vitro and in vivo studies were prepared in 0.25M sucrose and 0.001M (ethylenedinitrilo)tetraacetic acid. Acetyl coenzyme A synthetase and adenosine triphosphate dependent citrate lyase activities were determined spectrophotometrically at 540 nm as the hydroxylamate of acetyl coenzyme A formed after 30 min at 37° C. Mitochondrial citrate exchange was determined by the procedure of Robinson et al [Eur. J. Biochem., 216, 63 (1970)] using ^14 C-sodium bicarbonate (41 mCi/mmol) incorporated into mitochondrial ^14 C-citrate after isolating rat mitochondria (9000 g×10 min) from the homogenates. The exchanges of the ^14 C-citrate were determined after incubating the mitochondrial fraction which was loaded with labeled citrate and test drugs for 10 min. Then the radioactivity was measured in the mitochondrial and supernantant fractions in scintillation fluid and expressed as a percentage. Cholesterol side chain oxidation was determined by the method of Kritchevsky and Tepper [Artherosclerosis, 18, 93 (1973)] using (26-^14 C) cholesterol (50 mCi/mmol) and mitochondria isolated from rat liver homogenates. After 18 hr incubation at 37° C. with test drugs, the generated ^14 CO2 was trapped in the center well in {2-(2-(p-1,1,3,3,-tetramethylbutylcresoxy)ethoxy]ethyl } dimethylbenzylammonium hydroxide and counted. 3-Hydroxy-3-methylglutaryl coenzyme A reductase (HMG coenzyme A reductase) activity was measured using 1-^14 C-acetate (56 mCi/mmol) and a post-mitochondrial supernatant (9000 g×20 min) incubated for 60 min at 37° C. [Wada et al, J. Biochem. (Tokyo), 65 71 (1969)]. The digitonide derivative of cholesterol was isolated and counted. Acetyl coenzyme A carboxylase activity was measured by the method of Greenspan and Lowenstein [J. Biol. Chem., 243, 6273 (1968)]. […] Fatty acid synthetase activity was determined by the method of Brady et al [J. Biol. Chem., 235, 3093 (1960)] using [2-^14 C] malonyl-coenzyme A (37.5 mCi/mmol) which was incorporated into newly synthesized fatty acids that were extracted with ether and counted. Acyl transferase activity was determined with glycerol-3phosphate [L-2-^3 H(N)] […] HCl and counted. Phosphatidate phosphohydrolase activity was measured as the inorganic phosphate released after 30 min from phosphatidic acid by the method of Mavis et al [J. Lipid Res., 19, 467 (1978)]. The released inorganic phosphate after development with ascorbic acid and ammonium molybdate was determined at 820 nm. […]
# [4] = target: T1, ATP Dependent Citrate Lyase (Mus musculus, UniProt Q91V92); assay: In vivo liver enzyme study: ATP dependent citrate lyase; conditions: CF1 liver after 16 days i.p.
# T1 construct: 10% homogenates of CF1 male mouse liver; from tissue; host or cells: CF1 male mouse liver, 10% homogenate
# T1 sequence (Q91V92 1-1091): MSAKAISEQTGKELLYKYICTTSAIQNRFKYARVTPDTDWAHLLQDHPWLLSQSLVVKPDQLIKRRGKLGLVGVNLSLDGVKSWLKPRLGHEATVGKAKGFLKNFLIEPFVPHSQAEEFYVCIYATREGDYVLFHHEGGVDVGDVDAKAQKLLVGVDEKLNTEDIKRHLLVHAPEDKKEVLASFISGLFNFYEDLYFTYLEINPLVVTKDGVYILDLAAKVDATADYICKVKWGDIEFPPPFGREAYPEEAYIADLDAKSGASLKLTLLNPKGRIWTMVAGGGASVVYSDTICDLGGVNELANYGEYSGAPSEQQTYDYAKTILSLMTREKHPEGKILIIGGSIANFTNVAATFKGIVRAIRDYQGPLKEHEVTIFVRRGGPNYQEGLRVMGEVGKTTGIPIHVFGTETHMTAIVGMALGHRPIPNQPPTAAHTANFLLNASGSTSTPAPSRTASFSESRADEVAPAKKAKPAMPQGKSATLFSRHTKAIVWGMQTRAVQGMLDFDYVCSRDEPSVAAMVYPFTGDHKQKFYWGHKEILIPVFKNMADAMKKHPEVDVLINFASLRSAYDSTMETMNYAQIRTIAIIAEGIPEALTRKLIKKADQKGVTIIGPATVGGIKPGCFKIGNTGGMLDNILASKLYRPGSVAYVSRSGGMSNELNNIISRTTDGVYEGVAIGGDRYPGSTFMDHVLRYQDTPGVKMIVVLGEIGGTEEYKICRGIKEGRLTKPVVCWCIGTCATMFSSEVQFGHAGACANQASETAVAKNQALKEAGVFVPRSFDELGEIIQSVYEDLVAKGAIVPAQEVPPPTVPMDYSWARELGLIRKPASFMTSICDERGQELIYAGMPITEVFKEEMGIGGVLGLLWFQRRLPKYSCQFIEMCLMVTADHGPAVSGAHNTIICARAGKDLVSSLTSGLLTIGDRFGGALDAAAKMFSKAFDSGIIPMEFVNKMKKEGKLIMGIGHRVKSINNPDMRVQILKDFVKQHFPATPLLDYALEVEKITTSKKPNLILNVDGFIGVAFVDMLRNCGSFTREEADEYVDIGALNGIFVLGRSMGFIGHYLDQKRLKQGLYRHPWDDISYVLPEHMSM
# Method: as §1
substance,measurement,setting,value
{Cu[(CH3)3 N.BH2 CO2 ]2.(CH3)3 N.BH2 COOH} [Compound I],Adrenal weights,[1]; after drug administration,not altered
same,Organ Weight,[1]; rat Adrenal,0.031 gm
same,Organ Weight,[1]; rat Brain,1.666 gm
same,Organ Weight,[1]; rat Chyme,5.9333 gm
same,Organ Weight,[1]; rat Feces,8.633 gm
same,Organ Weight,[1]; rat Heart,1.021 gm
same,Organ Weight,[1]; rat Kidney,2.167 gm
same,Organ Weight,[1]; rat Large Intestine,4.233 gm
same,Organ Weight,[1]; rat Liver,10.600 gm
same,Organ Weight,[1]; rat Lung,1.933 gm
same,Organ Weight,[1]; rat Small Intestine,6.433 gm
same,Organ Weight,[1]; rat Spleen,0.501 gm
same,Organ Weight,[1]; rat Stomach,1.766 gm
same,Acetyl CoA synthetase,[2]; 2.5 mg/kg,62 ± 6% of control
same,Acetyl CoA synthetase,[2]; 5.0 mg/kg,77 ± 7% of control
same,Acetyl CoA synthetase,[2]; 10 mg/kg,73 ± 7% of control
same,Phosphatidate Phosphohydrolase,[3]; 2.5 mg/kg,55 ± 5% of control
same,Phosphatidate Phosphohydrolase,[3]; 5.0 mg/kg,53 ± 5% of control
same,Phosphatidate Phosphohydrolase,[3]; 10 mg/kg,18% of control
same,Phosphatidate Phosphohydrolase activity reduction,"[3]; in vivo, mice 16 days, 10 mg/kg/day",82%
same,ATP Dependent Citrate Lyase,[4]; 2.5 mg/kg,70 ± 6% of control
same,ATP Dependent Citrate Lyase,[4]; 5.0 mg/kg,79 ± 7% of control
same,ATP Dependent Citrate Lyase,[4]; 10 mg/kg,72 ± 7% of control
